Laboratory results from ChEMBL document CHEMBL2440076, “New triarylpyrazoles as broad-spectrum anticancer agents: design, synthesis, and biological evaluation” (Eur J Med Chem, 2013).

Columns and labels:
Assay type in all cases: functional
SK-OV-3 = test: Growth inhibition of human SKOV3 cells assessed as cell growth at 3X10'-7 M after 48 hrs by sulforhodamine B assay; conditions: SK-OV-3, 48 h, read-out: Activity
Malme-3M = test: Growth inhibition of human MALME-3M cells assessed as cell growth at 3X10'-7 M after 48 hrs by sulforhodamine B assay; conditions: read-out: Activity
[1] = Growth inhibition of human HCC2998 cells assessed as cell growth at 3X10'-7 M after 48 hrs by sulforhodamine B assay; conditions: HCC 2998, 48 h, read-out: Activity
COLO 205 [2] = test: Growth inhibition of human COLO205 cells assessed as cell growth at 3X10'-7 M after 48 hrs by sulforhodamine B assay; conditions: COLO 205, 48 h, read-out: Activity
ACHN = test: Growth inhibition of human ACHN cells assessed as cell growth at 3X10'-8 M after 48 hrs by sulforhodamine B assay; conditions: read-out: Activity
[3] = Growth inhibition of human Hs 578T cells assessed as cell growth at 3X10'-5 M after 48 hrs by sulforhodamine B assay; conditions: read-out: Activity
MDA-MB-231 = test: Growth inhibition of human MDA-MB-231 cells assessed as cell growth at 3X10'-5 M after 48 hrs by sulforhodamine B assay; conditions: MDA-MB-231, 48 h, read-out: Activity
MCF7 [4] = test: Growth inhibition of human MCF7 cells assessed as cell growth at 3X10'-5 M after 48 hrs by sulforhodamine B assay; conditions: MCF7, 48 h, read-out: Activity
LOX IMVI [5] = test: Growth inhibition of human LOXIMVI cells assessed as cell growth at 3X10'-8 M after 48 hrs by sulforhodamine B assay; conditions: read-out: Activity
SF-539 = test: Growth inhibition of human SF539 cells assessed as cell growth at 3X10'-8 M after 48 hrs by sulforhodamine B assay; conditions: SF-539, 48 h, read-out: Activity
SF-295 = test: Growth inhibition of human SF295 cells assessed as cell growth at 3X10'-8 M after 48 hrs by sulforhodamine B assay; conditions: SF-295, 48 h, read-out: Activity
NCI-H460 [6] = test: Growth inhibition of human NCI-H460 cells assessed as cell growth at 3X10'-8 M after 48 hrs by sulforhodamine B assay; conditions: NCI-H460, 48 h, read-out: Activity
NCI-H322M = test: Growth inhibition of human NCI-H322M cells assessed as cell growth at 3X10'-8 M after 48 hrs by sulforhodamine B assay; conditions: read-out: Activity
K562 = test: Growth inhibition of human K562 cells assessed as cell growth at 3X10'-8 M after 48 hrs by sulforhodamine B assay; conditions: K562, 48 h, read-out: Activity
BT-549 = test: Growth inhibition of human BT549 cells assessed as cell growth at 3X10'-9 M after 48 hrs by sulforhodamine B assay; conditions: BT-549, 48 h, read-out: Activity
TK-10 = test: Growth inhibition of human TK10 cells assessed as cell growth at 3X10'-5 M after 48 hrs by sulforhodamine B assay; conditions: TK-10, 48 h, read-out: Activity
OVCAR-8 [7] = test: Growth inhibition of human OVCAR8 cells assessed as cell growth at 3X10'-5 M after 48 hrs by sulforhodamine B assay; conditions: OVCAR-8, 48 h, read-out: Activity
OVCAR-5 = test: Growth inhibition of human OVCAR5 cells assessed as cell growth at 3X10'-5 M after 48 hrs by sulforhodamine B assay; conditions: OVCAR-5, 48 h, read-out: Activity
MCF7 [8] = test: Growth inhibition of human MCF7 cells assessed as cell growth at 3X10'-9 M after 48 hrs by sulforhodamine B assay; conditions: MCF7, 48 h, read-out: Activity
OVCAR-8 [9] = test: Growth inhibition of human OVCAR8 cells assessed as cell growth at 3X10'-9 M after 48 hrs by sulforhodamine B assay; conditions: OVCAR-8, 48 h, read-out: Activity
U-251 = test: Growth inhibition of human U251 cells assessed as cell growth at 3X10'-5 M after 48 hrs by sulforhodamine B assay; conditions: U-251, 48 h, read-out: Activity
SNB-75 [10] = test: Growth inhibition of human SNB75 cells assessed as cell growth at 3X10'-5 M after 48 hrs by sulforhodamine B assay; conditions: SNB-75, 48 h, read-out: Activity
SF-268 [11] = test: Growth inhibition of human SF268 cells assessed as cell growth at 3X10'-5 M after 48 hrs by sulforhodamine B assay; conditions: SF-268, 48 h, read-out: Activity
SK-MEL-5 = test: Growth inhibition of human SK-MEL-5 cells assessed as cell growth at 3X10'-9 M after 48 hrs by sulforhodamine B assay; conditions: SK-MEL-5, 48 h, read-out: Activity
SNB-75 [12] = test: Growth inhibition of human SNB75 cells assessed as cell growth at 3X10'-9 M after 48 hrs by sulforhodamine B assay; conditions: SNB-75, 48 h, read-out: Activity
SF-268 [13] = test: Growth inhibition of human SF268 cells assessed as cell growth at 3X10'-9 M after 48 hrs by sulforhodamine B assay; conditions: SF-268, 48 h, read-out: Activity
KM12 = test: Growth inhibition of human KM12 cells assessed as cell growth at 3X10'-9 M after 48 hrs by sulforhodamine B assay; conditions: KM12, 48 h, read-out: Activity
A549 = test: Growth inhibition of human A549/ATCC cells assessed as cell growth at 3X10'-9 M after 48 hrs by sulforhodamine B assay; conditions: A549, 48 h, read-out: Activity
CAKI-1 [14] = test: Growth inhibition of human CAKI-1 cells assessed as cell growth at 3X10'-6 M after 48 hrs by sulforhodamine B assay; conditions: CAKI-1, 48 h, read-out: Activity
OVCAR-3 = test: Growth inhibition of human OVCAR3 cells assessed as cell growth at 3X10'-6 M after 48 hrs by sulforhodamine B assay; conditions: OVCAR-3, 48 h, read-out: Activity
LOX IMVI [15] = test: Growth inhibition of human LOXIMVI cells assessed as cell growth at 3X10'-6 M after 48 hrs by sulforhodamine B assay; conditions: read-out: Activity
COLO 205 [16] = test: Growth inhibition of human COLO205 cells assessed as cell growth at 3X10'-6 M after 48 hrs by sulforhodamine B assay; conditions: COLO 205, 48 h, read-out: Activity
NCI-H460 [17] = test: Growth inhibition of human NCI-H460 cells assessed as cell growth at 3X10'-6 M after 48 hrs by sulforhodamine B assay; conditions: NCI-H460, 48 h, read-out: Activity
MCF7 [18] = test: Growth inhibition of human MCF7 cells assessed as cell growth at 3X10'-7 M after 48 hrs by sulforhodamine B assay; conditions: MCF7, 48 h, read-out: Activity
PC-3 = test: Growth inhibition of human PC3 cells assessed as cell growth at 3X10'-7 M after 48 hrs by sulforhodamine B assay; conditions: PC-3, 48 h, read-out: Activity
UO-31 = test: Growth inhibition of human UO31 cells assessed as cell growth at 3X10'-7 M after 48 hrs by sulforhodamine B assay; conditions: UO-31, 48 h, read-out: Activity
CAKI-1 [19] = test: Growth inhibition of human CAKI-1 cells assessed as cell growth at 3X10'-7 M after 48 hrs by sulforhodamine B assay; conditions: CAKI-1, 48 h, read-out: Activity

## O=C(Nc1cccc(-n2cc(-c3ccncc3)c(-c3ccc(Cl)c(O)c3)n2)c1)Nc1cccc(C(F)(F)F)c1
SK-OV-3
  growth at 0.3 µM: 105%
Malme-3M
  growth at 0.3 µM: 87%
[1]
  growth at 0.3 µM: 106%
COLO 205 [2]
  growth at 0.3 µM: 109%
ACHN
  growth at 0.03 µM: 101%
[3]
  growth at 30 µM: 11%
MDA-MB-231
  growth at 30 µM: -5%
MCF7 [4]
  growth at 30 µM: 2%
LOX IMVI [5]
  growth at 0.03 µM: 95%
SF-539
  growth at 0.03 µM: 100%
SF-295
  growth at 0.03 µM: 99%
NCI-H460 [6]
  growth at 0.03 µM: 101%
NCI-H322M
  growth at 0.03 µM: 95%
K562
  growth at 0.03 µM: 92%
BT-549
  growth at 0.003 µM: 91%
TK-10
  growth at 30 µM: 7%
OVCAR-8 [7]
  growth at 30 µM: 7%
OVCAR-5
  growth at 30 µM: 22%
MCF7 [8]
  growth at 0.003 µM: 91%
OVCAR-8 [9]
  growth at 0.003 µM: 99%
U-251
  growth at 30 µM: -48%
SNB-75 [10]
  growth at 30 µM: 1%
SF-268 [11]
  growth at 30 µM: -17%
SK-MEL-5
  growth at 0.003 µM: 103%
SNB-75 [12]
  growth at 0.003 µM: 91%
SF-268 [13]
  growth at 0.003 µM: 95%
KM12
  growth at 0.003 µM: 94%
A549
  growth at 0.003 µM: 97%
CAKI-1 [14]
  growth at 3 µM: 35%
OVCAR-3
  growth at 3 µM: 10%
LOX IMVI [15]
  growth at 3 µM: 44%
COLO 205 [16]
  growth at 3 µM: 90%
NCI-H460 [17]
  growth at 3 µM: 16%
MCF7 [18]
  growth at 0.3 µM: 89%
PC-3
  growth at 0.3 µM: 82%
UO-31
  growth at 0.3 µM: 90%
CAKI-1 [19]
  growth at 0.3 µM: 91%
